One experiment has as its system DU4475 cells. The experiment can be described thus: Cell-based assay: anti-proliferative activity, Cell Counting Kit-8, 72 hours (DU4475). Particulars: Homo sapiens, DU-4475. For orientation: Formazan colour is commonly taken as a measure of viable cells.
The test system of another experiment is HT-1197 cells. In words: Cell-based assay: anti-proliferative activity, Cell Counting Kit-8, 72 hours (HT-1197, negative control without MELK expression). Particulars: Homo sapiens, HT1197, 72 h, 72 hours. Put shortly: (§1)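 Proliferation read with Cell Counting Kit-8 after 72 hours of inhibitor treatment, from seeding of 2,000–3,000 cells/well. Lines: T47D, A549, BT-549; HT-1197, lacking MELK by western blot, served as negative control. IC50 derived.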

Another experiment relates to A549 cells. The experiment can be described thus: Cell-based assay: anti-proliferative activity, Cell Counting Kit-8, 72 hours (A549). Particulars: Homo sapiens, A549, 72 h, 72 hours. In short, it runs like this:
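Cell Counting Kit-8 read-out of A549 growth after 72 hours of inhibitor exposure, cells plated in 96-well format. Values reported as IC50.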

The next experiment has as its target MELK (Homo sapiens, UniProt Q14680). The experiment can be described thus: Kinase assay: MELK activity, phosphorylation of FITC-labeled histone H3 peptide measured by IMAP fluorescence polarization. Type of experiment: biochemical. Particulars: IMAP fluorescence polarization, 50 micro-M ATP, read-out: IC50 (μM) (kinase assay). In short, it runs like this:
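Fluorescence polarization was measured 0.5 h (room temperature) after quenching with threefold volume of progressive binding solution. Test compounds from 12.5 mM DMSO stocks were assayed at 1% DMSO.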
For orientation: In fluorescence polarisation assays a small probe gives low polarisation when free and higher when bound to something large.

A further experiment concerns T47D cells. The experiment can be described thus: Cell-based assay: anti-proliferative activity, Cell Counting Kit-8, 72 hours (T47D). Particulars: Homo sapiens, T47D, 72 h. In short, it runs like this: as §1
A further experiment concerns 22Rv1 cells. In words: Cell-based assay: anti-proliferative activity, Cell Counting Kit-8, 72 hours (22Rv1). The conditions noted are these: Homo sapiens.
For the next experiment, the system named is DU4475. The experiment can be described thus: Cell-based assay: anti-proliferative activity, Cell Counting Kit-8, 72 hours (DU4475). The conditions noted are these: Homo sapiens, DU-4475, DU4475 cells.
[1] abbreviates: HT1197 cells (negative control).
The mark [2] stands for this setting: HT1197 cells (negative control, no MELK expression).
Where [3] appears, read: FITC-labeled histone H3 peptide substrate.

Where a name gives a salt, the structure may show the parent alone. Read-outs that look alike come from different tables or passages of the source.

Chain of MELK (Q14680 whole entry, looked up): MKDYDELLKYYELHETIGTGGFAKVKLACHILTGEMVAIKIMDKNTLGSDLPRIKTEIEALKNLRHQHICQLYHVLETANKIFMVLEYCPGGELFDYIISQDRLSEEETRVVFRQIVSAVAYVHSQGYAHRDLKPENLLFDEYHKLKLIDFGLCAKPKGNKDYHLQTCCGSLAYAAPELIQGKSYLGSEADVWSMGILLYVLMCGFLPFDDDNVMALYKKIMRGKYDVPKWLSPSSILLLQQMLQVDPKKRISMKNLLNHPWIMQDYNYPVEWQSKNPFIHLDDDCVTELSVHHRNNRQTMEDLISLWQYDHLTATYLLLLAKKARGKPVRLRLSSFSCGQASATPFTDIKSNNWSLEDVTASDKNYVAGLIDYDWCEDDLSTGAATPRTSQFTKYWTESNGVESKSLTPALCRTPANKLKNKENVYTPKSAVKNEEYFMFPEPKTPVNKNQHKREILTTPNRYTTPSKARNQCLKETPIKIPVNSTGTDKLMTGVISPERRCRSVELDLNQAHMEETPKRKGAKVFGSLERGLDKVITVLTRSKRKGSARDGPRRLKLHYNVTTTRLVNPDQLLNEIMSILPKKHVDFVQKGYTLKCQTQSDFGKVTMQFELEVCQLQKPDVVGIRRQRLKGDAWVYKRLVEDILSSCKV

In the case of `CC(=O)c1cnc2ccc(-c3cc(Cl)c(O)c(Cl)c3)cc2c1Nc1cncc(CCN2CCCC2)c1` [Example 873, 1-(6-(3,5-dichloro-4-hydroxyphenyl)-4-((5-(2-(pyrrolidin-1-yl)ethyl)pyridin-3-yl)amino)quinolin-3-yl)ethanone hydrochloride], the IC50 – broadly, the concentration that inhibits the measured activity by half – in the experiment with DU4475 cells was determined as 0.17 µM; in the experiment with HT-1197 cells (setting [1]) it was 100 µM; in the experiment with A549 cells, 0.35 µM; on MELK (MELK kinase assay), 0.0067 µM; in the experiment on T47D cells, 100 µM.
In the case of `CN(C)C[C@H]1CC[C@H](Nc2c(C(=O)C(C)(C)C)cnc3ccc(-c4cc(Cl)c(O)c(Cl)c4)cc23)CC1` [Example 918, 1-(6-(3,5-dichloro-4-hydroxyphenyl)-4-((1R,4R)-4-((dimethylamino)methyl)cyclohexyl)amino)quinolin-3-yl)-2,2-dimethylpropan-1-one hydrochloride], the concentration for half-maximal inhibition (IC50) with DU4475 cells was 3.2 µM; in the experiment with HT-1197 cells (setting [1]), 10 µM; in the experiment on 22Rv1 cells, 6.6 µM; with A549 cells, 5.5 µM; in the experiment on T47D cells, 3 µM.
The matching figures for `CC(N)C(=O)N[C@H]1CC[C@H](Nc2c(C(=O)C(C)(C)C)cnc3ccc(-c4cc(Cl)c(O)c(Cl)c4)cc23)CC1` (stereo partly drawn) [Example 928, 2-amino-N-((1R,4R)-4-((6-(3,5-dichloro-4-hydroxyphenyl)-3-pivaloyl-quinolin-4-yl)amino)cyclohexyl) propanamide hydrochloride]: 1.1 µM, 8.1 µM, 2 µM, 4.1 µM and 1.4 µM.
In the case of `CC(=O)c1cnc2ccc(-c3cc(Cl)c(O)c(Cl)c3)cc2c1Nc1ccc(S(=O)(=O)N2CCN(C)CC2)cc1` [Example 887, 1-(6-(3,5-dichloro-4-hydroxyphenyl)-4-((4-((4-methylpiperazin-1-yl)sulfonyl)phenyl)amino)quinolin-3-yl)ethanone hydrochloride], the concentration for half-maximal inhibition (IC50) with DU4475 cells came to 100 µM; in the experiment on HT-1197 cells (setting [1]) it was 100 µM; in the experiment with A549 cells, 100 µM; with T47D cells, 1.3 µM.
Consider `CC(=O)c1cnc2ccc(-c3cc(Cl)c(O)c(Cl)c3)cc2c1N[C@H]1CC[C@H](NC(=O)[C@@H](N)C(C)(C)C)CC1` [Example 922, (S)-N-((1r,4S)-4-((3-acetyl-6-(3,5-dichloro-4-hydroxyphenyl)quinolin-4-yl)amino)cyclohexyl)-2-amino-3,3-dimethylbutanamide hydrochloride], for which the IC50 in the experiment with DU4475 cells came to 0.21 µM; with HT-1197 cells (setting [1]), 4.5 µM; with 22Rv1 cells, 0.65 µM; in the experiment with A549 cells it was 0.62 µM; in the experiment with T47D cells, 0.2 µM.
Consider `CS(=O)(=O)c1cnc2ccc(-c3cc(Cl)c(O)c(Cl)c3)cc2c1Nc1cccc(CCN2CCCC2)c1` [Example 883, 2,6-dichloro-4-(3-(methylsulfonyl)-4-((3-(2-(pyrrolidin-1-yl)ethyl)phenyl)amino)quinolin-6-yl)phenol hydrochloride], for which the IC50 with DU4475 cells is 0.53 µM; with HT-1197 cells (setting [1]) it was 100 µM; with 22Rv1 cells, 1.5 µM; with A549 cells, 1.9 µM; with T47D cells, 1.4 µM.
`CN(C)C1CCN(c2ccc(Nc3c(S(C)(=O)=O)cnc4ccc(-c5cc(Cl)c(O)c(Cl)c5)cc34)cn2)C1` (centres unmarked) [Example 906, 2,6-dichloro-4-(4-((6-(3-(dimethyl-amino)pyrrolidin-1-yl)pyridin-3-yl)amino)-3-(methylsulfonyl)quinolin-6-yl)phenol hydrochloride]: the 50% inhibitory concentration (IC50) in the experiment with DU4475 cells turned out to be 0.66 µM; in the experiment with HT-1197 cells (setting [1]), 9.3 µM; in the experiment on 22Rv1 cells, 2 µM; in the experiment with A549 cells it was 2 µM; with T47D cells, 1.3 µM.
`CN(C)C[C@H]1CC[C@H](Nc2c(C(=O)C3CCCC3)cnc3ccc(-c4cc(Cl)c(O)c(Cl)c4)cc23)CC1` [Example 917, cyclopentyl(6-(3,5-dichloro-4-hydroxy-phenyl)-4-((1R,4R)-4-((dimethyl-amino)methyl)cyclohexyl)amino) quinolin-3-yl)methanone hydrochloride]: the IC50 in the experiment with DU4475 cells worked out at 0.19 µM; in the experiment with HT-1197 cells (setting [1]), 3.3 µM; in the experiment on 22Rv1 cells, 0.91 µM; in the experiment with A549 cells it was 0.68 µM; in the experiment with T47D cells it was 0.7 µM.
Regarding `O=C(c1cnc2ccc(-c3cc(Cl)c(O)c(Cl)c3)cc2c1Nc1cncc(CCN2CCCC2)c1)C1CC1` [Example 881, cyclopropyl(6-(3,5-dichloro-4-hydroxyphenyl)-4-((5-(2-(pyrrolidin-1-yl)ethyl)pyridin-3-yl)amino)quinolin-3-yl)methanone], the IC50 is 0.078 µM in the experiment on DU4475 cells; 100 µM in the experiment on HT-1197 cells (setting [1]); 0.15 µM with A549 cells; 0.0064 µM at MELK (MELK kinase assay); 100 µM in the experiment with T47D cells.
Regarding `CC(=O)c1cnc2cc(C)c(-c3cc(Cl)c(O)c(Cl)c3)cc2c1N[C@H]1CC[C@H](CN2CCC(N)C2)CC1` (stereo partly drawn) [Example 872, 1-(4-((1R,4R)-4-((3-aminopyrrolidin-1-yl)methyl)cyclohexyl)amino)-6-(3,5-dichloro-4-hydroxyphenyl)-7-methylquinolin-3-yl)ethanone hydrochloride], the IC50 amounted to 0.26 µM in the experiment on DU4475 cells; 100 µM with HT-1197 cells (setting [1]); 14 µM with 22Rv1 cells; 100 µM in the experiment with A549 cells; 17 µM in the experiment with T47D cells.
In the case of `CCN(CC)CCO[C@H]1CC[C@H](Nc2c(C(C)=O)cnc3ccc(-c4cc(Cl)c(O)c(Cl)c4)cc23)CC1` [Example 868, 1-(6-(3,5-dichloro-4-hydroxyphenyl)-4-((1R,4R)-4-(2-(diethylamino)ethoxy)cyclohexyl)amino)quinolin-3-yl)ethanone hydrochloride], the concentration for half-maximal inhibition (IC50) in the experiment with DU4475 cells is 0.29 µM; with HT-1197 cells (setting [1]) it was 2.8 µM; in the experiment on 22Rv1 cells it was 0.3 µM; in the experiment with A549 cells, 0.28 µM; with T47D cells, 0.14 µM.
Regarding `CC(=O)c1cnc2ccc(-c3cc(F)c(O)c(Cl)c3)cc2c1Nc1ccc(S(=O)(=O)N2CCN(C)CC2)cc1` [Example 894, 1-(6-(3-chloro-5-fluoro-4-hydroxy-phenyl)-4-((4-((4-methylpiperazin-1-yl)sulfonyl)phenyl)amino)quinolin-3-yl)ethanone hydrochloride], the IC50 with DU4475 cells came to 100 µM; with HT-1197 cells (setting [1]), 63 µM; in the experiment with A549 cells, 100 µM; on MELK (MELK kinase assay) it was 0.039 µM; in the experiment on T47D cells, 1.5 µM.
For the compound `CS(=O)(=O)c1cnc2ccc(-c3cc(Cl)c(O)c(Cl)c3)cc2c1N[C@H]1CC[C@H](CN2CCCC2)CC1` [Example 890, 2,6-dichloro-4-(3-(methylsulfonyl)-4-((1R,4R)-4-(pyrrolidin-1-ylmethyl)cyclohexyl)amino)quinolin-6-yl) phenol hydrochloride], the IC50 came to 0.35 µM with DU4475 cells; 3 µM in the experiment with HT-1197 cells (setting [1]); 0.94 µM with 22Rv1 cells; 1.1 µM with A549 cells; 1.3 µM with T47D cells.
As for `O=C(c1cnc2ccc(-c3cc(F)c(O)c(Cl)c3)cc2c1N1CCN(CCN2CCCC2)CC1)C1CC1` [Example 402, (6-(3-chloro-5-fluoro-4-hydroxyphenyl)-4-(4-(2-(pyrrolidin-1-yl)ethyl)piperazin-1-yl)quinolin-3-yl)(cyclopropyl)methanone], the half-maximal inhibitory concentration (IC50) amounted to 5.1 µM in the experiment on HT-1197 cells (setting [2]); 1.2 µM in the experiment on A549 cells; 0.0058 µM on MELK (setting [3]); 0.48 µM in the experiment with DU4475; 0.88 µM in the experiment with T47D cells.
In the case of `CN(C)C[C@H]1CC[C@H](Nc2c(S(C)(=O)=O)cnc3ccc(-c4cc(Cl)c(O)c(Cl)c4)cc23)CC1` [Example 420, 2,6-dichloro-4-(4-((1R,4R)-4-((dimethylamino)methyl)cyclohexylamino)-3-(methylsulfonyl)quinolin-6-yl)phenol], the IC50 with HT-1197 cells (setting [2]) turned out to be 2.5 µM; in the experiment on A549 cells, 0.69 µM; on MELK (setting [3]), 0.0023 µM; with DU4475, 0.14 µM; in the experiment on T47D cells it was 0.47 µM.
The matching figures for `O=C(c1cnc2ccc(-c3cc(F)c(O)c(Cl)c3)cc2c1Nc1ccc(CN2CCOCC2)cc1)C1CC1` [Example 460]: 4.2 µM, 0.59 µM, 0.083 µM, 0.42 µM and 0.65 µM.
`CCN(CC)C1CCC(Nc2c(C(=O)C3CCCC3)cnc3ccc(-c4cc(F)c(O)c(Cl)c4)cc23)CC1` (centres unmarked) [Example 386, (6-(3-chloro-5-fluoro-4-hydroxyphenyl)-4-(4-(diethylamino)cyclohexylamino)quinolin-3-yl)(cyclopentyl)methanone]: the IC50 in the experiment on HT-1197 cells (setting [2]) stood at 0.78 µM; in the experiment with A549 cells, 0.4 µM; on MELK (setting [3]), 0.0092 µM; with DU4475, 0.29 µM; in the experiment on T47D cells, 0.41 µM.
Turning to `N#Cc1ncc(-c2ccc3ncc(C(=O)C4CC4)c(Nc4ccc(CN5CCOCC5)cc4)c3c2)cn1` [Example 461], the concentration for half-maximal inhibition (IC50) with HT-1197 cells (setting [2]) is 2 µM; in the experiment with A549 cells, 1.6 µM; at MELK (setting [3]) it was 0.015 µM; in the experiment on DU4475 it was 0.41 µM; in the experiment with T47D cells, 0.17 µM.
